The source made the active and inactive calls. The calls are words filed in the database; no cut-off is given here.
Test system: HT-29
Assay: Cytotoxicity against human HT-29 cells at 12 to 50 ug/ml
Type: functional, cell-based

## COc1cc(/C=C/C(=O)O[C@@H]2[C@H](O)[C@@H](O[C@@H]3O[C@@H](C)[C@H](O[C@@H]4OC[C@@H](O)[C@H](O[C@@H]5O[C@H](CO)[C@H](O[C@@H]6OC[C@H](O)[C@H](O)[C@H]6O)[C@H](O)[C@H]5O)[C@H]4O)[C@@H](O)[C@H]3O)[C@H](OC(=O)[C@]34CCC(C)(C)C[C@H]3C3=CC[C@@H]5[C@@]6(C)C[C@H](O)[C@H](O[C@@H]7O[C@H](CO)[C@@H](O)[C@H](O)[C@H]7O)[C@@](C)(C(=O)O)[C@@H]6CC[C@@]5(C)[C@]3(CO)CC4)O[C@@H]2C)cc(OC)c1OC
  Activity: Active
